Reference: patent publication US20080146555A1, “Uses of Kinase Inhibitors and Compositions Thereof” (GPC Biotech, Inc, priority 2004, published 2008)
Structures can show the parent of a compound that is named as a salt. Where two headings read alike, the source gives them in different places.

Tests used:
[1] = system: adriamycin resistant cell line (ADR-res); test: NCI panel, adriamycin resistant cell line, SRB assay; assay type: cell-based; conditions: Homo sapiens, 48 h
Excerpt: The evaluation of compounds at the National Cancer Institute in their panel of 60 cell lines provides a wealth of information regarding efficacy in a wide range of tumor types and genetic backgrounds. Included within this panel are cell lines derived from leukemia, melanoma and cancers of the lung, colon, brain, ovary, breast, prostate and kidney. Use of this panel provides a measure of the efficacy of compounds in cells with alterations in many genes that are associated with neoplastic transformation including p53 and Her2/Neu as well as those involved in metabolism and those which confer multi-drug resistance. The data generated in these cell lines with the protocol described below can be used to evaluate the activity of compounds.
Cells were grown in RPMI-1640 10% FCS and plated in 96 well micro-titer plates at densities ranging from 5,000 to 40,000 cells/well. The plates were incubated for 24 hours at 37° C., 5% CO2 for 24 hours. Media containing twice the desired final concentration of the compound (5 doses spanning 4 logs) was prepared and 100 μl was added to each well containing 100 μl media plus cells to yield the desired final concentration. The plates were then incubated for an additional 48 hours.
The effect of the compound on cellular viability was determined with the Sulforhodamine B (SRB) assay, which measures total protein. Cells were fixed with cold TCA to a final concentration of 10% and incubated at 4° C. for 60 minutes. The supernatant was discarded and the plates were washed five times with water and air-dried. SRB solution at […] in 1% acetic acid was added to each well and the plates were incubated for 10 minutes at room temperature. The plates were washed five times with 1% acetic acid and air-dried. The bound stain was solubilized with 10 mM trizma base and the absorbance was read on a plate reader at […].

JNK1α1 = target: T1, JNK1α1 (Homo sapiens, UniProt P45983); test: JNK1α1 kinase assay; assay type: biochemical
T1 construct: purchased Upstate 14-327
T1 sequence (P45983 1-384 isoform P45983-2, species assumed): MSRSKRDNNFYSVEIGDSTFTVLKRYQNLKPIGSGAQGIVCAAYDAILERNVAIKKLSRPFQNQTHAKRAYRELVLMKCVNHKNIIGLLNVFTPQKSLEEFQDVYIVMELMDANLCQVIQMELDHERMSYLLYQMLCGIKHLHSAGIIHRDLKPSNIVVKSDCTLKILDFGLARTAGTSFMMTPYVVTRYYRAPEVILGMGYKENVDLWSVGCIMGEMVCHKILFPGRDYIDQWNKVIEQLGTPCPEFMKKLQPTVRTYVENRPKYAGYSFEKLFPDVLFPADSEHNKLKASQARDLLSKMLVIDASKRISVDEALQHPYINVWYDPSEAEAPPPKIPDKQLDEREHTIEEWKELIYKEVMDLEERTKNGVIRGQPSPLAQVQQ
Procedure: • 1. 10× Reaction Buffer: 500 mM Tris-HCl pH 7.5, 1 mM EGTA, 1% 2-mercaptoethanol. • 2. Enzyme Dilution Buffer (EDB): 50 mM Tris-HCl pH 7.5, 0.1 mM EGTA, 0.1% 2-mercaptoethanol, 1 mg/ml BSA. • 3. JNK 11/SAPK1c, active: Dilute to 0.4-8 ng/μl with EDB. Use […] per assay point. • 4. ATF2 (amino acids 19-96) (Catalog #12-367): Prepare a 1.08 mg/ml stock. Use 2.5 μl per assay point for a final concentration of 3 μM per assay point. • 5. Magnesium/ATP Cocktail (Catalog #20-113): 75 mM MgCl2 and 500 μM ATP in 20 mM MOPS, pH 7.2, 25 mM β-glycerol phosphate, 5 mM EGTA, 1 mM sodium orthovanadate, 1 mM dithiothreitol. • 6. [γ-^32P]ATP: Stock 1 mCi/100 μl (3000 Ci/mmol, obtained from PerkinElmer, Cat. # BLU002A). Make 10 μl aliquots (100 μCi/vial). Before starting the assay, dilute an aliquot to 1 μCi/μl with 90 μl of Magnesium/ATP Cocktail diluted 1:2 with sterile, distilled water. […]
• 1. Add 2.5 μl of 10× Reaction Buffer per assay. • 2. Add 2.5 μl of ATF2 (amino acids 19-96). • 3. Add 2.5 μl (1-20 ng) JNK1α1/SAPK1c, active. • 4. Add 7.5 μl of sterile, distilled water. • 5. Add 10 μl of the diluted [γ-^32P]ATP mixture. • 6. Incubate for 10 minutes at 30° C. • 7. Transfer a 20 μl aliquot onto the center of a 2 cm×2 cm P81 paper. • 8. Wash the assay squares three times for 5 minutes with 0.75% phosphoric acid. • 9. Wash the assay squares once for 5 minutes with acetone. • 10. Transfer the assay squares to vial and add 5 ml scintillation cocktail. • 11. Read in scintillation counter. Compare cpm of enzyme samples to cpm of control samples that contain background control.

GSK3β = target: T2, GSK3β (Homo sapiens, UniProt P49841); test: GSK3β kinase assay; assay type: biochemical
T2 construct: purchased Upstate 14-306
T2 sequence (P49841 whole entry): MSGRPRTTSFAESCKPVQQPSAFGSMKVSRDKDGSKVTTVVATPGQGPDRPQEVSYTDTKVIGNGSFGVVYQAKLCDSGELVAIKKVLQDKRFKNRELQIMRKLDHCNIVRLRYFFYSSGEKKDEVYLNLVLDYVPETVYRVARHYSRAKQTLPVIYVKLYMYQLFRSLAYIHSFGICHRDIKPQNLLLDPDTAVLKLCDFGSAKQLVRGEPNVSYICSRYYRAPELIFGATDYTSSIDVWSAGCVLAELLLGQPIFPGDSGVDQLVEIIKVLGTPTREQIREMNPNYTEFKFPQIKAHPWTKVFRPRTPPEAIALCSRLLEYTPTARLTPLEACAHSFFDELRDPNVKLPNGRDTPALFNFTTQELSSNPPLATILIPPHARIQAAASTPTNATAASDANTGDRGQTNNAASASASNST
Procedure: • 1. Reaction Buffer: 8 mM MOPS, pH 7.0, 0.2 mM EDTA, 110 mM magnesium acetate. • 2. GSK3β, active: 5-40 ng per assay point. Dilute to 0.5-4 ng/μl in Reaction Buffer containing 0.03% Brij-35. • 3. Phospho-Glycogen Synthase Peptide-2 (Catalog #12-241): Prepare a 250 μM stock. Use 10 μl per assay point for a final assay concentration of 62.5 μM per assay point. • 4. [γ-^32P]ATP: Stock 1 mCi/100 μl (3000 Ci/mmol, obtained from Perkin Elmer, Cat. # BLU002A). Make 10 μl aliquots (100 μCi/vial). Before starting the assay, dilute an aliquot to 1 μCi/μl with 90 μl of 75 mM magnesium chloride and 500 μM unlabeled ATP in 20 mM MOPS, pH 7.2, 25 mM β-glycerol phosphate, 5 mM EGTA, 1 mM sodium orthovanadate, 1 mM dithiothreitol.
• 1. Add 10 μl of Reaction Buffer per assay. • 2. Add 10 μl of substrate peptide [final assay concentration of 62.5 μM]. • 3. Add 10 μl of GSK3β, active [5-40 ng per assay]. • 4. Add 10 μl of the diluted [^32P]ATP mixture. • 5. Incubate for 30 minutes at 30° C. • 6. Spot 25 μl onto the center of a 2 cm×2 cm P81 paper square. • 7. Wash the assay squares five times with 0.75% phosphoric acid. • 8. Wash the assay squares once with acetone. • 9. Transfer the assay squares to vial and add 5 ml scintillation cocktail. • 10. Read in scintillation counter. Compare cpm of enzyme samples to cpm of control samples that contain no enzyme (background control).

[2] = kinase panel, 10 μM ATP, read-out: JNK1α1 IC50
[3] = read-out: MAPK8 Inhibition (IC50)
[4] = kinase panel, 10 μM ATP, read-out: GSK3β IC50
[5] = read-out: GSK3B Inhibition (IC50)

For `COCCN1CCN(Cc2ccc(-c3n[nH]c4c3C(=O)c3c(NC(=O)NN5CCOCC5)cccc3-4)cc2)CC1` [Compound B16, N-[3-(4-{[4-(2-methoxyethyl)piperazinyl]methyl}phenyl)-4-oxoindeno[2,3-d]pyrazol-5-yl](morpholin-4-ylamino)carboxamide dihydrochloride], the IC50 [1] was < 10 µM, the IC50 (JNK1α1; [2]) was < 100 nM and the IC50 (JNK1α1; [3]) was < 100 nM. The IC50 (GSK3β; [4]) was < 100 nM and the IC50 (GSK3β; [5]) was < 5 nM.

With `CC(C)N1CCN(C(=O)COc2ccc(-c3n[nH]c4c3C(=O)c3c(NC(=O)NN5CCOCC5)cccc3-4)cc2)CC1` [Compound A37] the IC50 [1] was < 100 µM, the IC50 (JNK1α1; [2]) was 10 to 100 nM and the IC50 (JNK1α1; [3]) was < 50 nM. The IC50 (GSK3β; [4]) was < 3 nM and the IC50 (GSK3β; [5]) was < 5 nM.
